According to patent US10975119B2, “Selective cysteine protease inhibitors and uses thereof” (Genesis Technologies Limited, priority 2011, dated 2021):
Where a name gives a salt, the structure may show the parent alone. Read-outs that look alike come from different tables or passages of the source.

Legend:
Type in all cases: biochemical
Caspase-6 = biological target: T1, Caspase-6 (Homo sapiens, UniProt P55212); assay: Caspase-6 inhibitor screening assay (BioVision kit, VEID-AFC); conditions: for inhibition at 10 µM: read-out: % Inhibition at 10 uM Casp6; for inhibition at 100 µM: read-out: % Inhibition at 100 uM Casp6
T1 construct: mixing the compounds with the respective active caspases; purchased BioVision K156-100
T1 sequence (P55212 24-179 limits assumed): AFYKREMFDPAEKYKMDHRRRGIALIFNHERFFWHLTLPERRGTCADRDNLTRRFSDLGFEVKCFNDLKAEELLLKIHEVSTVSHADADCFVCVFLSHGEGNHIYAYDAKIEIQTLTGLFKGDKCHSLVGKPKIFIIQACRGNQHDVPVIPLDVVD
T1 sequence (P55212 194-293 limits assumed): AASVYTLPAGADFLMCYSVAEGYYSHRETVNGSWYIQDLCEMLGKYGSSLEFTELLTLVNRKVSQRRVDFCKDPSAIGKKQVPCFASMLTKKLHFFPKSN
Summary of the method: (§1)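 Fluorometric read-out of free AFC released from the caspase-specific synthetic substrate. IC50 from concentration series, sometimes narrower.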

Caspase-1 = biological target: T2, Caspase-1 (Homo sapiens, UniProt P29466); assay: Caspase-1 inhibitor screening assay (BioVision kit, YVAD-AFC); conditions: for inhibition at 10 µM: read-out: % Inhibition at 10 uM Casp1; for inhibition at 100 µM: read-out: % Inhibition at 100 uM Casp1
T2 construct: mixing the compounds with the respective active caspases; purchased BioVision K151-100
T2 sequence (P29466 120-297 limits assumed): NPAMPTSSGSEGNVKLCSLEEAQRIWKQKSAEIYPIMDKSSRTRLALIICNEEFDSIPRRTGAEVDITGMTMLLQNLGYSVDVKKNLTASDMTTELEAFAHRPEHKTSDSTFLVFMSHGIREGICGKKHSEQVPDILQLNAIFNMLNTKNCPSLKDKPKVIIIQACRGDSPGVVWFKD
T2 sequence (P29466 317-404 limits assumed): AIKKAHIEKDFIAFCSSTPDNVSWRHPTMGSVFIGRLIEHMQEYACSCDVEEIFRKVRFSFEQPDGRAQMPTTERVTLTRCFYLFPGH
Summary of the method: as §1

Caspase-9 = biological target: T3, Caspase-9 (Homo sapiens, UniProt P55211); assay: Caspase-9 inhibitor screening assay (BioVision kit, LEHD-AFC); conditions: for inhibition at 10 µM: read-out: % Inhibition at 10 uM Casp9; for inhibition at 100 µM: read-out: % Inhibition at 100 uM Casp9
T3 construct: purchased BioVision K159-100
T3 sequence (P55211 1-315 limits assumed): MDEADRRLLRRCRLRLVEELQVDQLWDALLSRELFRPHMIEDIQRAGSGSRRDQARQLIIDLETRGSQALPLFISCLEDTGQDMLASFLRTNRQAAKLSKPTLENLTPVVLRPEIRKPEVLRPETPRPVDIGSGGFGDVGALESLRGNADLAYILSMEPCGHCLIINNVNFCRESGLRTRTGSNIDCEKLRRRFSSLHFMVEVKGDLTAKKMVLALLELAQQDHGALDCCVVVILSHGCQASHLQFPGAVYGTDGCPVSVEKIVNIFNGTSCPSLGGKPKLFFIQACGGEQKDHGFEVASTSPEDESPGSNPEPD
T3 sequence (P55211 331-416 limits assumed): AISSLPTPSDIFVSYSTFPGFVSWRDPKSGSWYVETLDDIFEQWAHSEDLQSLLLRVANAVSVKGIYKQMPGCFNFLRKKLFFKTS
Summary of the method: as §1

Caspase-5 = biological target: T4, Caspase-5 (Homo sapiens, UniProt P51878); assay: Caspase-5 inhibitor screening assay (BioVision kit, WEHD-AFC); conditions: for inhibition at 10 µM: read-out: % Inhibition at 10 uM Casp5; for inhibition at 100 µM: read-out: % Inhibition at 100 uM Casp5; for IC50: read-out: IC50 Casp5
T4 construct: mixing the compounds with the respective active caspases; purchased BioVision K155-100
T4 sequence (P51878 137-327 limits assumed): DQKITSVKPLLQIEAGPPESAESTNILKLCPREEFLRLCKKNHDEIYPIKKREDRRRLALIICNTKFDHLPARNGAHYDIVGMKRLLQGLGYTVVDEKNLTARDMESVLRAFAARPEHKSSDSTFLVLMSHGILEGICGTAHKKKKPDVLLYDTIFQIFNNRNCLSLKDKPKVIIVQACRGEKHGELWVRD
T4 sequence (P51878 347-434 limits assumed): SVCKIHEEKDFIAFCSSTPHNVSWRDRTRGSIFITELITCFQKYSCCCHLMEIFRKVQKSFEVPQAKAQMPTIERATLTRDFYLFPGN
Summary of the method: as §1

Caspase-7 = biological target: T5, Caspase-7 (Homo sapiens, UniProt P55210); assay: Caspase-7 inhibitor screening assay (BioVision kit, DEVD-AFC); conditions: for inhibition at 10 µM: read-out: % Inhibition at 10 uM Casp7; for inhibition at 100 µM: read-out: % Inhibition at 100 uM Casp7
T5 construct: mixing the compounds with the respective active caspases; purchased BioVision K157-100
T5 sequence (P55210 24-198 limits assumed): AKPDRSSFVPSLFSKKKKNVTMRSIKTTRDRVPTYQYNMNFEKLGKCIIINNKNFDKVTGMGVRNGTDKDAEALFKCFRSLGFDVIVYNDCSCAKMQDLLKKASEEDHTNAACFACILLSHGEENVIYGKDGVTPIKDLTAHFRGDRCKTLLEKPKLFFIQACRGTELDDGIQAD
T5 sequence (P55210 207-303 limits assumed): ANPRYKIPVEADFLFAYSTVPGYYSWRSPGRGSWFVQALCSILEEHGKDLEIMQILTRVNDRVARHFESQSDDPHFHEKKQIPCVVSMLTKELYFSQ
Summary of the method: as §1

Caspase-10 = biological target: T6, Caspase-10 (Homo sapiens, UniProt Q92851); assay: Caspase-10 inhibitor screening assay (BioVision kit, AEVD-AFC); conditions: for inhibition at 10 µM: read-out: % Inhibition at 10 uM Casp10; for inhibition at 100 µM: read-out: % Inhibition at 100 uM Casp10
T6 construct: mixing the compounds with the respective active caspases; purchased BioVision K160-100
T6 sequence (Q92851 220-415 limits assumed): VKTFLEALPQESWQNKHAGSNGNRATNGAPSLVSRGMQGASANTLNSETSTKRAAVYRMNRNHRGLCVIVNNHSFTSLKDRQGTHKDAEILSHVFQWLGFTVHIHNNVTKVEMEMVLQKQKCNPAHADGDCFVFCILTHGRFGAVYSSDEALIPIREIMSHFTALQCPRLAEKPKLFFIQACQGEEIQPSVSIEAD
T6 sequence (Q92851 416-521 limits assumed): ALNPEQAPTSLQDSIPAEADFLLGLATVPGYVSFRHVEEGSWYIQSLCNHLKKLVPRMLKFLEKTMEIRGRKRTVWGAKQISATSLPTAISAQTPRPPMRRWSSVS
Summary of the method: as §1

[1] = read-out: potency (IC50) against caspase-10

Compound | inhibition at 10 µM (Caspase-6) | inhibition at 100 µM (Caspase-6) | IC50 (Caspase-6; read-out: IC50 Casp6) | inhibition at 10 µM (Caspase-1) | inhibition at 100 µM (Caspase-1) | IC50 (Caspase-1; read-out: IC50 Casp1) | inhibition at 10 µM (Caspase-9) | inhibition at 100 µM (Caspase-9) | IC50 (Caspase-9; read-out: IC50 Casp9) | inhibition at 10 µM (Caspase-5) | inhibition at 100 µM (Caspase-5) | IC50 (Caspase-5) | inhibition at 10 µM (Caspase-7) | inhibition at 100 µM (Caspase-7) | IC50 (Caspase-7; read-out: IC50 Casp7) | inhibition at 10 µM (Caspase-10) | inhibition at 100 µM (Caspase-10) | IC50 (Caspase-10; read-out: IC50 Casp10) | other results
CCOC(=O)/C=C/[C@@H](N)CC(=O)O [Compound 44, Asp ethyl vinyl ester tosyl salt] | 0% | 0% | > 100 µM | 0% | 0% | > 100 µM | 0% | 0% | > 100 µM | 0% | 0% | > 100 µM | 0% | 0% | > 100 µM | 4% | 15% | > 100 µM | 
CC(C)[C@H](NC(=O)[C@@H](NC(=O)[C@H](CC(=O)O)NC(=O)OCc1ccccc1)c1ccccc1)C(=O)N[C@H](/C=C/S(C)(=O)=O)CCC(=O)O [Compound 84, Z-Asp-Phg-Val-Glu methyl vinyl sulfone] | 0% | 5% | > 100 µM | 0% | 0% | > 100 µM | 0% | 6% | > 100 µM | 0% | 0% | > 100 µM | 9% | 76% | 49.9 µM | 2% | 0% | > 100 µM | 
CCOC(=O)/C=C/[C@H](CC(=O)O)NC(=O)[C@@H](NC(=O)[C@@H](NC(=O)[C@H](CC(=O)O)NC(=O)OCc1ccccc1)c1ccccc1)C(C)C [Compound 105, Z-Asp-Phg-Val-Asp Ethyl Vinyl Ester] | 13% | 10% |  | 84% | 96% |  | 92% | 92% | 1 µM | 41% | 41% |  | 99% | 99% | 0.15 µM | 96% | 99% | 0.59 µM | IC50 (Caspase-1; read-out: potency (IC50) against caspase-1): 1.05 µM; IC50 (Caspase-9; read-out: potency (IC50) against caspase-9): 0.994 µM; IC50 (Caspase-7; read-out: potency (IC50) against caspase-7): 0.145 µM; IC50 (Caspase-10; [1]): 0.592 µM
CCOC(=O)/C=C/[C@H](CC(=O)O)NC(=O)[C@H]1CCCN1C(=O)[C@@H](NC(=O)c1ccc(N)c(Cl)c1)C(C)(C)C [Compound 116, (4-amino-3-chlorobenzene carbonyl)-t-Leu-Pro-Asp Ethyl vinyl ester] |  |  | > 100 µM |  |  | 0.01 µM |  |  | 0.83 µM |  |  | 0.13 µM |  |  | 3.6 µM |  |  | 0.55 µM | 
CCOC(=O)/C=C/[C@H](CC(=O)O)NC(=O)[C@H]1CCCN1C(=O)[C@@H](NC(=O)c1ccc2ccccc2n1)C(C)(C)C [Compound 118, 2-Quinoline carbonyl-t-Leu-Pro-Asp Ethyl Vinyl Ester] | 3% | 6% | > 100 µM | 100% | 100% | 0.03 µM | 53% | 92% | 8.9 µM | 88% | 99% | 1.95 µM | 3% | 8% | > 100 µM | 59% | 97% | 8.05 µM | 
CCOC(=O)/C=C/[C@H](CC(=O)O)NC(=O)[C@@H](NC(=O)[C@H](CCC(=O)O)NC(=O)[C@@H](NC(=O)OCc1ccccc1)C(C)C)C(C)CC (stereo partly drawn) [Compound 124, Z-Val-Glu-Ile-Asp-Ethyl Vinyl ester] |  |  | 0.29 µM |  |  | 0.78 µM |  |  | 7.5 µM |  |  | 3.77 µM |  |  | > 100 µM |  |  | 0.03 µM | IC50 (Caspase-6; read-out: inhibition (IC50) against Caspase-6): 0.293 µM
CCOC(=O)/C=C/[C@H](CC(=O)O)NC(=O)[C@@H](NC(=O)[C@H](CCC(=O)O)NC(=O)[C@@H](NC(=O)OCc1ccccc1)C(C)C)c1ccccc1 [Compound 126, Z-Val-Glu-Phg-Asp-Ethyl Vinyl ester] |  |  | 0.48 µM |  |  | 1 µM |  |  | > 100 µM |  |  | 8.58 µM |  |  | > 100 µM |  |  |  | IC50 (Caspase-10; [1]): 0.002 µM
